In experiment [1] the test system is primary isolated hepatic parenchymal cells of SD rats. Nature of the experiment: Hepatic gluconeogenesis inhibitory activity in primary hepatocytes. It is filed as cell-based. To be noted: for inhibition at 20 µM / inhibition at 40 µM: Rattus norvegicus, Hepatocyte, read-out: hepatic gluconeogenesis inhibitory activity. The text has this:
In this embodiment, primary isolated hepatic parenchymal cells of SD rats (purchased from Experimental Animal Center of Southern Medical University) were used as a model, and berberine, a traditional Chinese medicine as a hypoglycemic agent, was used as a positive control to evaluate an impact of the novel triterpenoid compound (23R, 25E)-3β-hydroxy-23-methoxycucurbita-6,25-dien-5β,19-olide3-O-β-d-allopyranoside and Momordicoside G, and compositions thereof in different proportions (novel triterpenoid compound:Momordicoside G=1:0.5, 1:1.0, or 1:1.5) on hepatic gluconeogenesis, thereby further elaborating beneficial effects of the present invention. The process was as follows:
In-situ perfusion digestion was used to digest SD rat liver with type IV collagenase. After being dispersed, hepatocytes were transferred to a 49% Percoll separation solution for centrifugation. After supernatant was discarded, the cells adhered for 6 hours to a 24-well plate coated with 0.2% gelatin. After starvation in a serum-free low-sugar medium for 8 hours, the supernatant was discarded, the cells were washed with PBS buffer, and then a reaction solution (sugar-free DMEM containing 2 mM sodium pyruvate and 20 mM sodium lactate) was added, waiting for a sample test.
Triterpenoid compounds (a novel triterpenoid compound and Momordicoside G) were dissolved in dimethyl sulfoxide (DMSO) to prepare […] mother liquor. Through dilution with the foregoing reaction solution, the final concentrations of the triterpenoid compounds finally added into cell culture wells were 20 μM and 40 μM respectively, and the final concentration of the DMSO was 0.4%. A negative control was a reaction solution containing the DMSO with the same concentration (0.4%). Berberine, a positive control, was prepared into 40 mM with ultrapure water, the final concentrations for the test were 20 μM and 40 μM, and the final concentration of the DMSO was kept at 0.4%. To-be-tested samples were added into the cell reaction solution, and continued to be cultured for 6 hours. Then the glucose concentration in the culture medium (that is, the reaction solution) of each well was measured, and then the medium was discarded. After being washed with PBS, the cells were lysed with 250 mM NaOH, and the protein concentration was measured by using a Coomassie brilliant blue method. By reading an absorbance value, the concentration of glucose in the medium in all sample wells and the concentration of protein after lysis were determined by using a standard curve method, and a ratio of the two was used to measure an average gluconeogenesis level of the cells in the wells.

Another experiment relates to 3T3-L1 preadipocytes. Nature of the experiment: Inhibitory activity against 3T3-L1 preadipocyte-induced differentiation (oil red O staining). It is filed as cell-based, mouse. As to conditions: for content of lipid droplets after oil red O staining: 20 μM and 40 μM, compared with differentiation solution group. As for the experimental part:
A mouse embryonic fibroblast 3T3-L1 cell line (preadipocytes) was purchased from Shanghai Cell Bank, Chinese Academy of Sciences.
In the test, samples fell into an undifferentiation control group (cultured with a normal DMEM), a negative control group (cultured with a DMEM containing a differentiation solution), and a sample intervention group [cultured with a DMEM containing a differentiation solution+a or 40 μM triterpenoid compound or triterpenoid composition (novel triterpenoid compound:Momordicoside G=0.5, 1.0, or 1.5)]. Differentiation was induced by using a methylisobutylxanthine, dexamethasone and insulin, (MDI) induction medium (the induction medium is a differentiation solution, and the differentiation solution includes a high-sugar DMEM containing 0.5 mmol/L IBMX, 1 μmol/L DEX, 10 mg/L insulin, and 10% FCS). 3T3-L1 preadipocytes were cultured in an incubator with 5% CO2 and 37° C. saturated humidity, and cultured in the DMEM containing 10% FCS until the density of monolayer adherent cells was greater than or equal to 90%. After being washed with Hanks' balanced salt solution (HBSS), the cells were digested by trypsin, and then inoculated into a 6-well culture plate (1×10^5 cells/well). After cell contact inhibition, a fresh DMEM containing 10% FCS was used for fusion culture for 2 days. On the 3rd day (that is, the 0th day of differentiation), the cells were cultured in the differentiation solution for culture, and 0.1% DMSO and a novel triterpenoid compound (23R, 25E)-3β-hydroxy-23-methoxycucurbita-6,25-dien-5β,19-olide3-O-β-d-allopyranoside with concentration gradients of 20 μM and 40 μM or known compound Momordicoside G or a composition of the two were added in the sample intervention group. 0.1% DMSO was added in the negative control group. On the 2nd day of differentiation, the medium was replaced with a DMEM containing only 10 mg/L insulin and 10% FCS, the samples of each group continued to be cultured, and the medium was replaced once every 2 days until the experiment ended on the 8th day of differentiation. After the experiment ended, the medium was discarded, the cells were washed twice with cold PBS, and the cells were fixed with 4% paraformaldehyde solution for 60 min. After paraformaldehyde was removed and PBS was added for washing, the fixed cells were stained with an oil red O dye kit (Solarbio, G1262-4) for 1 hour, and the cells were washed with 60% isopropanol for 3 times to remove the uncolored oil red O dye and were photographed for observation. After the observation, the cells were lysed with lysate (containing 4% NP-40), and an absorbance value at 490 nm was measured, and calculated by using an OD value.

[2] abbreviates: 20 μM, 6 hours culture, primary hepatocytes.
[3] abbreviates: 40 μM, 6 hours culture, primary hepatocytes.

Read-outs that look alike come from different tables or passages of the source.

The text below walks through data of patent US12006310B2, “Preparation and application of triterpenoids with effect of improving glucose and lipid metabolism disorders” (SERICULTURAL&AGRI-FOOD RESEARCH INSTITUTE GUANGDONG ACADEMY …, priority 2022, dated 2024).

As for `COc1ccc2cc3[n+](cc2c1OC)CCc1cc2c(cc1-3)OCO2` [berberine], the inhibition at 20 µM in experiment [1] (setting [2]) was 15.6%. In addition, in experiment [1] (setting [3]), the inhibition at 40 µM was determined as 35.2%.
As to `COC(C=C(C)C)C[C@@H](C)[C@H]1CC[C@@]2(C)C3C=CC45OC(=O)[C@]3(CC[C@]12C)C4CC[C@H](O[C@@H]1O[C@H](CO)[C@H](O)[C@H](O)[C@H]1O)C5(C)C` (stereo partly drawn) [novel triterpenoid compound, (23R, 25E)-3β-hydroxy-23-methoxycucurbita-6,25-dien-5β,19-olide3-O-β-d-allopyranoside], the inhibition at 20 µM in experiment [1] (6 h) worked out at 32.1%; with 3T3-L1 preadipocytes (Mus musculus, 3T3-L1, 20 μM, 8th day of differentiation, oil red O, absorbance 490 nm, vs differentiation solution group, read-out: inhibition rate on differentiation of 3T3-L1 preadipocytes) it was 35.5%. The inhibition at 40 µM came out at 28.9% in experiment [1] (6 h) and 56.4% in the experiment on 3T3-L1 preadipocytes (Mus musculus, 3T3-L1, 40 μM, 8th day of differentiation, oil red O, absorbance 490 nm, vs differentiation solution group, read-out: inhibition rate on differentiation of 3T3-L1 preadipocytes). Also, in the experiment on 3T3-L1 preadipocytes, the “content of lipid droplets after oil red O staining” value is recorded as “decreased significantly”.
As for Momordicoside G, the entries for the “hepatic gluconeogenesis inhibitory activity” value in experiment [1] (setting [2]) and in experiment [1] (setting [3]) were 20.75% and 34.42%, respectively. For the same compound, the “content of lipid droplets after oil red O staining” value with 3T3-L1 preadipocytes was “decreased significantly”. The “inhibition rate on differentiation of 3T3-L1 preadipocytes” value in the experiment with 3T3-L1 preadipocytes (20 μM, 8th day of differentiation, oil red O, absorbance 490 nm, vs differentiation solution group) was 23.77%; in the experiment on 3T3-L1 preadipocytes (40 μM, 8th day of differentiation, oil red O, absorbance 490 nm, vs differentiation solution group), 51.27%.
